Reference: the NIST ThermoML archive (doi:10.1021/je900525f)
Numbers after ± are expanded uncertainties.

Assay: xn = mol fraction of the nth substance listed
Conditions: 101 kPa, Liquid; for viscosity: Capillary tube (Ostwald / Ubbelohde) method; for speed of sound: Pulse-echo method

CCOC(=O)CCl [ethyl chloroethanoate] + N#CCc1ccccc1
Conditions	mass density, 303.15 K [kg/m3]	mass density, 308.15 K [kg/m3]	mass density, 313.15 K [kg/m3]	speed of sound, 303.15 K [m/s]	speed of sound, 308.15 K [m/s]	speed of sound, 313.15 K [m/s]	viscosity, 303.15 K [mPa·s]	viscosity, 308.15 K [mPa·s]	viscosity, 313.15 K [mPa·s]
x2 = 0	1139.3 ± 0.9	1132.5 ± 0.9	1125.9 ± 0.9	1229.4 ± 7.5	1212.4 ± 7.4	1197.6 ± 7.3	0.9692 ± 0.012	0.8979 ± 0.012	0.8341 ± 0.012
x2 = 0.0205	1135.8 ± 0.9	1129.8 ± 0.9	1123.2 ± 0.9	1235.7 ± 7.5	1218.9 ± 7.4	1204 ± 7.3	0.9824 ± 0.012	0.9115 ± 0.012	0.8463 ± 0.012
x2 = 0.1376	1119.2 ± 0.8	1114.3 ± 0.9	1107.6 ± 0.9	1268.8 ± 7.7	1254 ± 7.6	1240.4 ± 7.5	1.069 ± 0.013	0.9906 ± 0.013	0.9164 ± 0.012
x2 = 0.2585	1102.6 ± 0.8	1098.5 ± 0.8	1091.7 ± 0.9	1303.2 ± 7.9	1291.5 ± 7.8	1279 ± 7.8	1.161 ± 0.013	1.072 ± 0.013	0.9925 ± 0.013
x2 = 0.3793	1086.4 ± 0.8	1083.3 ± 0.8	1076.2 ± 0.8	1338.7 ± 8.1	1328.4 ± 8.1	1316.6 ± 8	1.254 ± 0.014	1.155 ± 0.013	1.07 ± 0.013
x2 = 0.4843	1072.6 ± 0.8	1069.8 ± 0.8	1062.8 ± 0.8	1370.5 ± 8.3	1361.6 ± 8.3	1348.5 ± 8.2	1.336 ± 0.014	1.229 ± 0.013	1.139 ± 0.013
x2 = 0.5875	1059.3 ± 0.8	1056.4 ± 0.8	1049.8 ± 0.8	1400.6 ± 8.5	1388.9 ± 8.4	1381 ± 8.4	1.419 ± 0.015	1.302 ± 0.014	1.207 ± 0.013
x2 = 0.7152	1043.2 ± 0.8	1040 ± 0.8	1034 ± 0.8	1438.2 ± 8.7	1426.3 ± 8.6	1419.9 ± 8.6	1.523 ± 0.015	1.394 ± 0.014	1.292 ± 0.014
x2 = 0.8434	1027.5 ± 0.7	1023.7 ± 0.8	1018.3 ± 0.8	1476.9 ± 8.9	1466 ± 8.9	1457.4 ± 8.8	1.628 ± 0.016	1.488 ± 0.015	1.379 ± 0.014
x2 = 0.9764	1011.6 ± 0.7	1007 ± 0.7	1002.3 ± 0.8	1516 ± 9.2	1505.6 ± 9.1	1495.8 ± 9.1	1.74 ± 0.016	1.584 ± 0.015	1.471 ± 0.015

CCOC(=O)CC#N [ethyl cyanoacetate] + N#CCc1ccccc1
Conditions	mass density, 303.15 K [kg/m3]	mass density, 308.15 K [kg/m3]	mass density, 313.15 K [kg/m3]	speed of sound, 303.15 K [m/s]	speed of sound, 308.15 K [m/s]	speed of sound, 313.15 K [m/s]	viscosity, 303.15 K [mPa·s]	viscosity, 308.15 K [mPa·s]	viscosity, 313.15 K [mPa·s]
x2 = 0	1051.4 ± 1.4	1046.5 ± 1.4	1040.8 ± 1.5	1396.9 ± 8.6	1384.8 ± 8.6	1367.7 ± 8.5	2.186 ± 0.027	1.962 ± 0.024	1.77 ± 0.022
x2 = 0.0223	1050.1 ± 1.4	–	1039.8 ± 1.4	1399.6 ± 8.7	–	1370.4 ± 8.5	2.179 ± 0.026	–	1.764 ± 0.022
x2 = 0.0233	–	1045.6 ± 1.4	–	–	1386.5 ± 8.6	–	–	1.955 ± 0.024	–
x2 = 0.1383	1044.4 ± 1.3	1040.9 ± 1.3	1034.8 ± 1.3	1412.3 ± 8.7	1397.7 ± 8.6	1384.6 ± 8.5	2.135 ± 0.025	1.917 ± 0.023	1.733 ± 0.021
x2 = 0.2569	1038.8 ± 1.2	1035.9 ± 1.2	1029.9 ± 1.2	1424.4 ± 8.7	1410 ± 8.7	1399.1 ± 8.6	2.088 ± 0.024	1.877 ± 0.022	1.701 ± 0.02
x2 = 0.3778	1033.4 ± 1.1	1030.8 ± 1.1	1025.3 ± 1.1	1436 ± 8.8	1423.7 ± 8.7	1414.2 ± 8.7	2.039 ± 0.022	1.836 ± 0.02	1.671 ± 0.019
x2 = 0.4842	1028.9 ± 1	1026.3 ± 1	1021.1 ± 1.1	1448 ± 8.8	1436.3 ± 8.8	1429.2 ± 8.7	1.995 ± 0.021	1.799 ± 0.019	1.644 ± 0.018
x2 = 0.5882	1024.6 ± 0.9	1021.8 ± 1	1016.8 ± 1	1461.3 ± 8.9	1450.4 ± 8.8	1442 ± 8.8	1.95 ± 0.02	1.761 ± 0.018	1.612 ± 0.017
x2 = 0.7172	1019.4 ± 0.9	1016.2 ± 0.9	1011.4 ± 0.9	1479.4 ± 9	1468.5 ± 8.9	1459.4 ± 8.9	1.893 ± 0.019	1.713 ± 0.017	1.572 ± 0.017
x2 = 0.8426	1014.6 ± 0.8	1010.9 ± 0.8	1005.8 ± 0.8	1496.9 ± 9.1	1487.6 ± 9	1478 ± 9	1.835 ± 0.017	1.664 ± 0.017	1.535 ± 0.016
x2 = 0.9759	1009.7 ± 0.7	1005.2 ± 0.7	1000.4 ± 0.8	1515.5 ± 9.2	1508.7 ± 9.1	1495.9 ± 9.1	1.773 ± 0.017	1.612 ± 0.016	1.496 ± 0.015
